Experimental data: US20260125378A2, “Heterocyclic Compounds” (BeOne Medicines I GmbH, priority 2023, published 2026)
pIC50: −log10 of the molar value.

Tests used:
[1] = biological target: T1, Full length DGKα (D21-10BG, SignalChem) (Homo sapiens, UniProt P23743); assay: Biochemical DGK IC50 assay (ADP-Glo, lipid micelle substrate), DGKα; details: 1 hour preincubation, 1 hour reaction, room temperature
T1 construct: Full length DGKα (D21-10BG, SignalChem); purchased SignalChem D21-10BG
How it was run: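 Full-length human DGKα with DAG/PS lipid micelle substrate (in octyl glucoside buffer), reacted 1 h at room temperature in 50 mM HEPES, 10 mM MgCl2, 0.01 mM CaCl2, 0.1 mM Na3VO4, 0.01% BSA, 0.005% Tween-20. ADP formed read by ADP-Glo luminescence; IC50 from inhibition across increasing compound concentrations.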

[2] = biological target: T2, Full length DGKζ (in-house protein M1-V929) (Homo sapiens, UniProt Q13574); assay: Biochemical DGK IC50 assay (ADP-Glo, lipid micelle substrate), DGKζ; details: 1 hour preincubation, 1 hour reaction, room temperature
T2 construct: His (N); TEV site (N); made in house; host or cells: Sf9 insect cells (Bac-to-Bac baculovirus)
How it was run: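 Full-length human DGKζ (M1-V929, His-TEV tagged, Sf9 baculovirus-expressed) with DAG/PS lipid micelle substrate in octyl glucoside, at room temperature in 50 mM HEPES, 10 mM MgCl2, 0.01 mM CaCl2 buffer.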

T1 sequence (P23743 whole entry): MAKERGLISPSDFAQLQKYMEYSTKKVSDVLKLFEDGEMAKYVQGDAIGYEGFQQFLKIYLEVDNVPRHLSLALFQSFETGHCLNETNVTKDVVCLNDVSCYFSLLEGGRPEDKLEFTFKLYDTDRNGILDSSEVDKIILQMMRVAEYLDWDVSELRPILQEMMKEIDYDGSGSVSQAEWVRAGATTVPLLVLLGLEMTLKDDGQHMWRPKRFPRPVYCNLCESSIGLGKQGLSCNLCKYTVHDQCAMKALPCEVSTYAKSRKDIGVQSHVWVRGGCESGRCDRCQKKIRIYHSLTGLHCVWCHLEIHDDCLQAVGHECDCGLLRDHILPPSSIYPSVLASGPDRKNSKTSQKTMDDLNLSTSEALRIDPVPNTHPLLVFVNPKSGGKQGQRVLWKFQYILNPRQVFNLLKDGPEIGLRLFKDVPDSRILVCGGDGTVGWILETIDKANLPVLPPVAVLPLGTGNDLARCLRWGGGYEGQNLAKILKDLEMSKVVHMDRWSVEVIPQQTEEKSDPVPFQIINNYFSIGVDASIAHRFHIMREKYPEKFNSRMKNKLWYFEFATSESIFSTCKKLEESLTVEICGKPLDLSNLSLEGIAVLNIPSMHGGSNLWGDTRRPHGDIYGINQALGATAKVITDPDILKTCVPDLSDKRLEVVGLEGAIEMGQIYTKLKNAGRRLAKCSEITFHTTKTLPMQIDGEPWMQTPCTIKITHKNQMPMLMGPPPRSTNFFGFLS
T2 sequence (Q13574 1-929 isoform Q13574-4): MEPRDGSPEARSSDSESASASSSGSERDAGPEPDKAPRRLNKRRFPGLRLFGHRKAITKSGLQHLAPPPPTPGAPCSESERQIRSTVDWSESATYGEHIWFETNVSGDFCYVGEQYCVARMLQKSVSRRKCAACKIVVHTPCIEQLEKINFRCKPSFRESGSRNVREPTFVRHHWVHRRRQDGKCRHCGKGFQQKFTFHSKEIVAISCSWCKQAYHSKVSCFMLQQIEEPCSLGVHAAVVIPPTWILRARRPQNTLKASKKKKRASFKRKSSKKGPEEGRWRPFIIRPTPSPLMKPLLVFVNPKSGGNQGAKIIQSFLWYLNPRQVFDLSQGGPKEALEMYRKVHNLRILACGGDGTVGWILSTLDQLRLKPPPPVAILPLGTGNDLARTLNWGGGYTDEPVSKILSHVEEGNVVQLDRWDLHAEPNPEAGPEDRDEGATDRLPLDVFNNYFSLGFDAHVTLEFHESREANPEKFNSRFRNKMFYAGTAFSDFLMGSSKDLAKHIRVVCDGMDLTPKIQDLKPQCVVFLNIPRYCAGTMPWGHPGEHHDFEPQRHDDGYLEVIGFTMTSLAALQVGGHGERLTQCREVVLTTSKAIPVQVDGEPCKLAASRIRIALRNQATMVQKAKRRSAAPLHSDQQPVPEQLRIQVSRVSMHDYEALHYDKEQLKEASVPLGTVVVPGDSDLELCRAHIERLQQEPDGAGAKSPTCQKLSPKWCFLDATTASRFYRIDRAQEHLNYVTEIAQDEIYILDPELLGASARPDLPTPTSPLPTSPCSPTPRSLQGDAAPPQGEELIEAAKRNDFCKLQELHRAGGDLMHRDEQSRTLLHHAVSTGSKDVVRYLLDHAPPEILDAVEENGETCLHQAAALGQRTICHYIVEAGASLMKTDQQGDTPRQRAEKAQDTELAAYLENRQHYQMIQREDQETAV

Compound | pIC50 [1] | pIC50 [2]
CCn1c(CC#N)nc2c(N3C[C@@H](C)N(C(C)c4ccnc(C(=O)NC)c4)C[C@@H]3C)nc(=O)n(C)c21 (stereo partly drawn) [Compound A130, 4-(1-((2R,5S)-4-(8-(cyanomethyl)-9-ethyl-3-methyl-2-oxo-3,9-dihydro-2H-purin-6-yl)-2,5-dimethylpiperazin-1-yl)ethyl)-N-methylpicolinamide] | < 3.82 | 5.41
CCn1c(CC#N)nc2c(N3C[C@@H](C)N(C(C)c4ccc5occ(C)c(=O)c5c4)C[C@@H]3C)nc(=O)n(C)c21 (stereo partly drawn) [Compound A91, 2-(6-((2S,5R)-2,5-dimethyl-4-(1-(3-methyl-4-oxo-4H-chromen-6-yl)ethyl)piperazin-1-yl)-9-ethyl-3-methyl-2-oxo-3,9-dihydro-2H-purin-8-yl)acetonitrile] | < 3.82 | 7.70
CC[C@@H]1CN(c2nc(=O)n(CC)c3c2nc(CC#N)n3C)[C@@H](C)CN1C(C)c1ccc2c(c1)OC(C)(C)CO2 (single isomer, unassigned) [Compound A66b] | 5.16 | 9.00
